Results from PubChem BioAssay AID2060891 (Molecular Pharmacology Branch, DTP, NCI, 2025).

Test system: K98450-129-R-PDC complex spheroid growth, percent test/control
Assay: Anticancer human tumor K98450-129-R-PDC patient-derived colon adenocarcinoma cell line growth inhibition [RAS]
Conditions: for IC50: curve of first compound; for viability, T/C: stronger effect = lower value; active means viability on the fitted dose curve at most 10% of control; inactive means the rest
From the text: RAS pathway inhibitors in Combinations in Complex Spheroids
A high-throughput screen of multi-cell type tumor spheroids was designed to identify active combinations of RAS pathway inhibitors and targeted small molecules. Complex spheroids include a stromal component modeled by human endothelial cells (HUVEC) and fibroblasts modeled by human mesenchymal stem cells (MSCs). The concentration ranges selected for each drug and investigational agent were based upon clinically achievable concentrations if the clinical Cmax of the agent was known.
Compounds. The drugs and investigational agents: abemaciclib (NSC768073), cobimetinib (NSC768068), divarasib (GDC6063, NSC841802), docetaxel (NSC628503), GDC-1971 (RLY-1971, NSC841576), gemcitabine (NSC613327), inavolisib (NSC800729), ipatasertib (NSC767898), KB-0742 (NSC834161), MRTX-1133 (NSC836407), osimertinib (NSC779217), RMC-4630 (NSC839698), RMC-6236 (NSC851965), RMC-6291 (NSC852671), Ro-3306 (NSC812927), sapanisertib (NSC764658), SN-38 (NSC673596), staurosporine (NSC755774), SY5609 (NSC837396), and tovorafenib (DAY101, NSC766906), were obtained from the National Cancer Institute (NCI) Developmental Therapeutics Program Chemical Repository. The FDA-approved anticancer drug set is available from the NCI Developmental Therapeutics Program. […] The stock solutions were prepared in dimethyl sulfoxide (DMSO, Sigma-Aldrich, St. Louis, MO, cat. D2650) at 800-fold the tested concentration and stored at -70 degrees C prior to their use. All drugs and investigational agents were tested over a range starting from a high concentration at or near the clinical Cmax and decreasing in half-log increments. If the clinical Cmax for an agent had not been determined, the highest concentration tested was 10 microM.
Cell Culture. All cells were maintained in an incubator at 37 degrees C and 5% CO2 with 95% humidity. The PDC lines were cultured according to standard operating procedures established by the NCI PDMR. All PDCs were thawed and cultured in Matrigel-coated flasks prepared with a working solution of 1X Ham's F-12 nutrient mix, without supplementation (Invitrogen, Waltham, MA, cat. 11765054), 100 U/mL penicillin-streptomycin (Invitrogen, cat. 15140122), and 2.5% Matrigel (Corning Inc., Corning, NY, cat. 354248) for the first three passages. The 362531-283-R-J2-PDC and 782815-120-R-J1-PDC lines were cultured in 6C/Colon 1B media, which includes advanced DMEM/F-12 (Thermo Fisher Scientific, cat. 12634028), 10 mM HEPES (Thermo Fisher Scientific, cat. 15630080), 1X GlutaMAX supplement (Thermo Fisher Scientific, cat. 35050061), 0.1 mg/mL primocin (InvivoGen, San Diego, CA, cat. ant-pm-2), 10% defined fetal bovine serum, heat inactivated (HyClone Laboratories Inc., Logan, UT, cat. SH30070.03HI), 50% L-WRN conditioned media (ATCC, cat. CRL-3276), 1.25 mM N-Acetyl-L-cysteine (Sigma-Aldrich, cat. A9165), 10 mM nicotinamide (Sigma-Aldrich, cat. N0636), 1X B-27 supplement (Thermo Fisher Scientific, cat. 17504044), 1X N-2 supplement (Thermo Fisher Scientific, cat. 17502048), 50 ng/mL human EGF (Thermo Fisher Scientific, cat. PHG0311), and 10 microM Y-27632 dihydrochloride (Tocris Bioscience, cat. 1254). The K12877-001-R-J1-PDC line was cultured in 6I media, which includes all 6C/Colon 1B media plus 10 ng/mL human FGF-10 (PeproTech, cat. 100-26), 1 ng/mL human FGF-2 (PeproTech, cat. 100-18B), 1 µM prostaglandin E2 (Tocris Bioscience, cat. 2296), […] hydrocortisone (Sigma-Aldrich, cat. H4001), and […] bovine insulin (Sigma-Aldrich, cat. I6634). The K86415-001-R-J1-PDC line was cultured in 6D media, which includes all 6C/Colon 1B media components minus the L-WRN conditioned media. The 485176-168-R4-J1-PDC was cultured in PANC media, which includes all 6C/Colon 1B media plus 100 ng/mL human FGF-10 (PeproTech, cat. 100-26), 500 nM SB-431542 (Selleckchem, cat. S1067), and 10 nM gastrin (Tocris Bioscience, cat. 3006). […]

[1] = second compound 0.0316 µM, first compound 0.0316 µM
[2] = second compound 0.0316 µM, first compound 0.1 µM
[3] = second compound 0.0316 µM, first compound 0.316 µM
[4] = second compound 0.0316 µM, first compound 1 µM
[5] = second compound 0.1 µM, first compound 0.0316 µM
[6] = second compound 0.1 µM, first compound 0.1 µM
[7] = second compound 0.1 µM, first compound 0.316 µM
[8] = second compound 0.1 µM, first compound 1 µM
[9] = second compound 0.316 µM, first compound 0.0316 µM
[10] = second compound 0.316 µM, first compound 0.1 µM
[11] = second compound 0.316 µM, first compound 0.316 µM
[12] = second compound 0.316 µM, first compound 1 µM
[13] = second compound 1 µM, first compound 0.0316 µM
[14] = second compound 1 µM, first compound 0.1 µM
[15] = second compound 1 µM, first compound 0.316 µM
[16] = second compound 1 µM, first compound 1 µM
[17] = second compound 3.16 µM, first compound 0.0316 µM
[18] = second compound 3.16 µM, first compound 0.1 µM
[19] = second compound 3.16 µM, first compound 0.316 µM
[20] = second compound 3.16 µM, first compound 1 µM
[21] = second compound 10 µM, first compound 0.0316 µM
[22] = second compound 10 µM, first compound 0.1 µM
[23] = second compound 10 µM, first compound 0.316 µM
[24] = second compound 10 µM, first compound 1 µM
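Further: spheroids exposed to agents for seven days before the viability readout.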
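Wherever viability, T/C is given: luminescence used as a proxy for viable cell amount.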

CC1(O)CCCC1n1c(=O)c(C(F)F)cc2cnc(NC3CCN(S(C)(=O)=O)CC3)nc21 (centres undefined) + C#Cc1c(F)ccc2cc(O)cc(-c3ncc4c(N5CC6CCC(C5)N6)nc(OCC56CCCN5CC(F)C6)nc4c3F)c12
inactive: viability, T/C [1] 105% | viability, T/C [2] 101% | viability, T/C [3] 91.3% | viability, T/C [4] 78.3% | viability, T/C (second compound 0.0316 µM, first compound 3.16 µM) 64.2% | viability, T/C (second compound 0.0316 µM, first compound 10 µM) 59.3% | viability, T/C [5] 108% | viability, T/C [6] 101% | viability, T/C [7] 91.7% | viability, T/C [8] 77.8% | viability, T/C (second compound 0.1 µM, first compound 3.16 µM) 65.8% | viability, T/C (second compound 0.1 µM, first compound 10 µM) 60.5% | viability, T/C [9] 106% | viability, T/C [10] 99.5% | viability, T/C [11] 92.4% | viability, T/C [12] 78.8% | viability, T/C (second compound 0.316 µM, first compound 3.16 µM) 65.5% | viability, T/C (second compound 0.316 µM, first compound 10 µM) 60.5% | viability, T/C [13] 104% | viability, T/C [14] 103% | viability, T/C [15] 89.3% | viability, T/C [16] 68.8% | viability, T/C (second compound 1 µM, first compound 3.16 µM) 58.8% | viability, T/C (second compound 1 µM, first compound 10 µM) 55.3% | viability, T/C [17] 90.9% | viability, T/C [18] 94.2% | viability, T/C [19] 83.5% | viability, T/C [20] 73.7% | viability, T/C (second compound 3.16 µM, first compound 3.16 µM) 63.8% | viability, T/C (second compound 3.16 µM, first compound 10 µM) 57.3% | viability, T/C [21] 89.8% | viability, T/C [22] 85.6% | viability, T/C [23] 80% | viability, T/C [24] 67.4% | viability, T/C (second compound 10 µM, first compound 3.16 µM) 57.4% | viability, T/C (second compound 10 µM, first compound 10 µM) 51%
> 10000 nM: IC50 (second compound 0.0316 µM) | IC50 (second compound 0.1 µM) | IC50 (second compound 0.316 µM) | IC50 (second compound 1 µM) | IC50 (second compound 3.16 µM) | IC50 (second compound 10 µM)

CCN1CCN(Cc2ccc(Nc3ncc(F)c(-c4cc(F)c5nc(C)n(C(C)C)c5c4)n3)nc2)CC1 + C#Cc1c(F)ccc2cc(O)cc(-c3ncc4c(N5CC6CCC(C5)N6)nc(OCC56CCCN5CC(F)C6)nc4c3F)c12
> 1000 nM: IC50 (second compound 0.0316 µM) | IC50 (second compound 0.1 µM) | IC50 (second compound 0.316 µM) | IC50 (second compound 1 µM) | IC50 (second compound 3.16 µM)
inactive: viability, T/C (second compound 0.0316 µM, first compound 0.00316 µM) 110% | viability, T/C (second compound 0.0316 µM, first compound 0.01 µM) 105% | viability, T/C [1] 99% | viability, T/C [2] 92.4% | viability, T/C [3] 72.2% | viability, T/C [4] 74.4% | viability, T/C (second compound 0.1 µM, first compound 0.00316 µM) 109% | viability, T/C (second compound 0.1 µM, first compound 0.01 µM) 100% | viability, T/C [5] 98.4% | viability, T/C [6] 86.9% | viability, T/C [7] 74.1% | viability, T/C [8] 70.5% | viability, T/C (second compound 0.316 µM, first compound 0.00316 µM) 104% | viability, T/C (second compound 0.316 µM, first compound 0.01 µM) 106% | viability, T/C [9] 97.6% | viability, T/C [10] 89.6% | viability, T/C [11] 74.5% | viability, T/C [12] 67.4% | viability, T/C (second compound 1 µM, first compound 0.00316 µM) 107% | viability, T/C (second compound 1 µM, first compound 0.01 µM) 99.5% | viability, T/C [13] 90.1% | viability, T/C [14] 82.8% | viability, T/C [15] 66.5% | viability, T/C [16] 59.2% | viability, T/C (second compound 3.16 µM, first compound 0.00316 µM) 90.4% | viability, T/C (second compound 3.16 µM, first compound 0.01 µM) 94.6% | viability, T/C [17] 95.8% | viability, T/C [18] 75.6% | viability, T/C [19] 62.8% | viability, T/C [20] 53.6% | viability, T/C (second compound 10 µM, first compound 0.00316 µM) 85.7% | viability, T/C (second compound 10 µM, first compound 0.01 µM) 89.3% | viability, T/C [21] 81.6% | viability, T/C [22] 69.8% | viability, T/C [23] 46.9% | viability, T/C [24] 31.9%
270 nM: IC50 (second compound 10 µM)
